One data set addresses TSSK1 (Homo sapiens, UniProt Q9BXA7). The experiment in a line: Kinase assay TSSK1. The format is biochemical. Here is the method:
(§1) Serial dilutions in DMSO were prepared. PLK1 was serially diluted 5-fold from 10 μM, yielding concentrations from 10000 nM to 0.00512 nM. Other targets were serially diluted 3-fold from 10 μM, yielding concentrations from 10000 nM to 0.5 nM. We have used two kinase assays: HTRF assay and ADG-Glo assay.
(§2) For HTRF Assay, 2× ATP/substrate solution and 2× kinase solution were prepared in kinase reaction buffer. Using an Echo 655, 50 nL of each diluted compound was transferred to a 384-well detection plate. The plate was centrifuged at 1000 rpm for 1 minute. 2.5 μL of 2× kinase solution was added to each well. The plate was incubated at 25°C for 10 minutes. 2.5 μL of 2× ATP/substrate solution was added to each well. The plate was centrifuged at 1000 rpm for 1 minute. The plate was incubated at 25°C for 40 minutes. 2× XL665 and antibody detection reagent were prepared in detection buffer. 5 μL of the prepared kinase detection reagent was added to each well. The plate was centrifuged at 1000 rpm for 1 minute. The plate was incubated at 25°C for 1 hour. Fluorescence signals at 620 nm (Cryptate) and 665 nm (XL665) were measured using a multifunction plate reader.
(§3) For ADP-Glo Assay, 2× ATP/substrate solution and 2× kinase solution were prepared in kinase reaction buffer. […] Luminescence signals were measured using a multifunction plate reader.

The test system of the next data set is PANC-1. As to the kind of experiment: Cell viability (CellTiter-Glo, 72 h), PANC-1. The settings on record: PANC-1, 72 hours; for IC50: Homo sapiens; for Bottom: dose-response curve bottom; for Top: dose-response curve top. It counts as cell-based, Human. Here is the method:
Human pancreatic cancer cell lines (PSN1, PANC-1, Panc 04.03, MIA PaCa-2, BxPC-3, and Capan-1) were cultured in their respective culture media. PSN1 cell lines were maintained in RPMI 1640 + 10%FBS. MIA PaCa-2 cells were cultured in DMEM+10%FBS+5% horse serum. Panc 04.03 cells were grown in RPMI 1640 + 15%FBS+10μg/mL Insulin. PANC-1 cells were maintained in DMEM+10%FBS. BxPC-3 cells were cultured in RPMI 1640 + 10%FBS. Capan-1 cells were grown in IMDM+20%FBS. All cells were incubated at 37°C in a humidified atmosphere containing 5% CO2.
For assays, cells in the logarithmic growth phase were harvested, seeded to different concentrations at 2,000-6,000 cells/well in 96-well plates. Following overnight incubation, test compounds were added at various concentrations and incubated for 72 hours. Cell viability was assessed by the ATP concentration using the CellTiter-Glo reagent (Promega, Madison, WI 53711 USA), and luminescence values were recorded by a Multilabel Reader (PerkinElmer, Waltham, MA, USA).

A further data set addresses DYRK2 (Homo sapiens, UniProt Q92630). As to the kind of experiment: Kinase assay DYRK2. The format is biochemical. Here is the method:
as §1, §2, §3

Another data set concerns the target DYRK3 (Homo sapiens, UniProt O43781). The experiment in a line: Kinase assay DYRK3. It counts as biochemical. Here is the method: as §1, §2, §3
The target of the next data set is CK1δ (Homo sapiens, UniProt P48730). As to the kind of experiment: Kinase assay CK1δ. It counts as biochemical. Here is the method: as §1, §2, §3
The subject of data set [1] is p-TCTP, a direct substrate of PLK1. The experiment in a line: Pharmacodynamics: phospho-Ser46 TCTP in PSN-1 xenograft tumors (Western blot). The format is in vivo, M-NSG mice. The settings on record: 2 hours after single oral dose (60, 30, 15 mg/kg). Here is the method: (§4) For in vivo PK/PD studies, a PSN1 tumor model was established in female M-NSG (NOD.Cg-Prkdc^scidIl2rg^em1Smoc ) mice, which are severely immunodeficient mice lacking the interleukin 2 receptor gamma chain on a NOD.Cg-Prkdc^scid background, at Shanghai Model Organisms (Shanghai, China). Briefly, 5 × 10^6 PSN1 cells were inoculated subcutaneously into each M-NSG mouse. Once the tumors reached approximately 500 mm³, compounds were administered orally at various dosages. For PK studies, blood samples were collected at 0, 0.25, 0.5, 1, 2, 6, and 24 hours post-dose. The sera from blood were then obtained and stored at -70°C. For PD studies, tumors were harvested 2 hours after dosing and stored at -70°C.The serum and tumor samples were then transported to PRECEDO (Hefei, Anhui, China) for further PK/PD studies.
For PD study, tumor tissues (~30 mg) were homogenized in 350 µL Lysis Buffer. After centrifugation, protein concentration in supernatants was determined by BCA assay. Samples were prepared for SDS-PAGE and run on 10% gels. Proteins were transferred to PVDF membranes, blocked, and incubated with anti-Phospho-TCTP (Ser46) Antibody (Cell Signaling Technology, Danvers, MA, USA) (1:1,000) overnight at 4°C. After washing, membranes were incubated with HRP-anti-Rabbit IgG (Cell Signaling Technology, Danvers, MA, USA) (1:3,000) for 1 hour, then treated with ECL reagents for imaging.

A further data set has as its system Sprague-Dawley rats. The experiment in a line: Sprague-Dawley rat repeated administration toxicity study. The settings on record: for Death / survival after 9-day dosing: Sprague-Dawley rats, oral 15 mg/kg once a day, n=3; for Rats survived at day 14: female, Sprague-Dawley, po, 14 days. Here is the method:
Rat toxicity was studied at JOINN Laboratories (Suzhou, Jiangsu, China). […] […] […] Using 2 mL sterile syringes and gavage tubes, animals were dosed based on their most recent body weight, with volumes rounded to one decimal place. Test compounds were stirred continuously for at least 15 minutes before and during administration. The rats were dosed once a day for 14 days.

The nature of data set [2]: Pharmacokinetics in PSN1 tumor CDX model, M-NSG mice. It counts as in vivo. The settings on record: female, mouse, serum; PSN1 tumor-bearing M-NSG mice, oral, 60 mg/kg; read-out: T1/2 in blood (converted). Here is the method:
as §4
For PK studies, serum and tumor samples were processed with the internal standard solution. Serum samples were centrifuged and mixed directly, while tumor samples were homogenized first. Supernatants were prepared for LC-MS/MS analysis. Compound concentrations were determined using LC-MS/MS with tolbutamide as the internal standard, employing a reverse-phase column and ESI on a tandem quadrupole mass spectrometer.

Another data set concerns the target CLK1 (Homo sapiens, UniProt P49759). As to the kind of experiment: Kinase assay CLK1. It counts as biochemical. Here is the method:
as §1, §2, §3

A further data set deals with CLK2 (Homo sapiens, UniProt P49760). The experiment in a line: Kinase assay CLK2. It counts as biochemical. Here is the method: as §1, §2, §3

Structures are written as SMILES.

CK1δ, sequence (P48730 whole entry): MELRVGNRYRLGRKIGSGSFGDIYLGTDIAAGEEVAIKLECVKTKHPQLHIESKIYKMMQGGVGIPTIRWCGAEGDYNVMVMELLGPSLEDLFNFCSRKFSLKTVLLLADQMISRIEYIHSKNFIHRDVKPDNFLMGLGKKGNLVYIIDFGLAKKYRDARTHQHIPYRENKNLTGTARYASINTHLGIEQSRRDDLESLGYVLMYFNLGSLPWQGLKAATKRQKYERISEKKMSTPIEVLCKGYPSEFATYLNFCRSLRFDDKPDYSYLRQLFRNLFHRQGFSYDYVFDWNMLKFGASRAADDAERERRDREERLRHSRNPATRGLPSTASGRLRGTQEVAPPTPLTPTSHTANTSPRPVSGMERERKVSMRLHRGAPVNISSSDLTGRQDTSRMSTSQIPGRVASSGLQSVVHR
CLK2, sequence (P49760 whole entry, species assumed): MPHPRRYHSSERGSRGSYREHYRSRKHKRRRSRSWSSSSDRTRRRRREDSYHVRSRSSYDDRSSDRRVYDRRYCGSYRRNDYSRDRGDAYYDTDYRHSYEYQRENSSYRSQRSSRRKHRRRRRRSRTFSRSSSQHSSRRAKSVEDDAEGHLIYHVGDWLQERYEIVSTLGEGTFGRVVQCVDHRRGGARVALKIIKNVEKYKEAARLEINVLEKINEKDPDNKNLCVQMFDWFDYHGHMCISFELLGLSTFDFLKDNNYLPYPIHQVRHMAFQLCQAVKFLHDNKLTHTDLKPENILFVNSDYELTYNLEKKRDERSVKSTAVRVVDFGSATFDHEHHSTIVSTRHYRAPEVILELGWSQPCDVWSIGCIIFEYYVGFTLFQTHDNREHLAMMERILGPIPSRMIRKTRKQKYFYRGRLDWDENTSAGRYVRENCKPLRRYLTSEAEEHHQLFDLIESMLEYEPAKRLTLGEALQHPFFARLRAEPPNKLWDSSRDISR
DYRK2, sequence (Q92630 whole entry): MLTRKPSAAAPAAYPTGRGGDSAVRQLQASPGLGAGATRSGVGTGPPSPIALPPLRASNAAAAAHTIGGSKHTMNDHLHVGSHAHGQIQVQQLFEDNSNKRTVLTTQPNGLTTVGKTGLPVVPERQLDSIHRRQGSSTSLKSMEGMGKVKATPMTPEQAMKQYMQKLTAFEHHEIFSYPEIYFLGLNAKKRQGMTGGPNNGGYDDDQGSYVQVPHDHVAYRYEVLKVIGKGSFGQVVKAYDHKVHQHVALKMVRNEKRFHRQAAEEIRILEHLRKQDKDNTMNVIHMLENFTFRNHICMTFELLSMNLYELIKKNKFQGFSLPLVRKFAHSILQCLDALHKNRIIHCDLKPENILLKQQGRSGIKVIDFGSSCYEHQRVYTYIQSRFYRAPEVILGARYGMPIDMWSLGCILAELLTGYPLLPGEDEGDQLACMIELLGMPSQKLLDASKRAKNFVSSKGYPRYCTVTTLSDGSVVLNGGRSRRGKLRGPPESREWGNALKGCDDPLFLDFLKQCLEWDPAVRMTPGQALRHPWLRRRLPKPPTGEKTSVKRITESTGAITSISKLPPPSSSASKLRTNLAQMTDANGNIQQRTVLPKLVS
DYRK3, sequence (O43781 whole entry, species assumed): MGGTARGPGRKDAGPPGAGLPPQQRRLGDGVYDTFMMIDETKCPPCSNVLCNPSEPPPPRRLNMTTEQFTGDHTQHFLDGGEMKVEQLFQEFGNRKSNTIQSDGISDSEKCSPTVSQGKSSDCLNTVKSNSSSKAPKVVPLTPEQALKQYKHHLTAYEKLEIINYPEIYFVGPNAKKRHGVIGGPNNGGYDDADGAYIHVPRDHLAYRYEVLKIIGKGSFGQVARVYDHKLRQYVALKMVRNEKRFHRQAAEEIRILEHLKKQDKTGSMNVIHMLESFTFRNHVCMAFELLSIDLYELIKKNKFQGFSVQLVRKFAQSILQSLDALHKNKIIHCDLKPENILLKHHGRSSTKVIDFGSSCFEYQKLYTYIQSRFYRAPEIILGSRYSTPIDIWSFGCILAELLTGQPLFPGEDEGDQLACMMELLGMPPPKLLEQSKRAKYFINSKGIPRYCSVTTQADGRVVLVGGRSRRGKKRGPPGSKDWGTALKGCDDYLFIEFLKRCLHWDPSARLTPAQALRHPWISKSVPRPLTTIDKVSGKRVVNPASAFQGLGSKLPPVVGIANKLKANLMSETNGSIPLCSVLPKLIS
TSSK1, sequence (Q9BXA7 whole entry, species assumed): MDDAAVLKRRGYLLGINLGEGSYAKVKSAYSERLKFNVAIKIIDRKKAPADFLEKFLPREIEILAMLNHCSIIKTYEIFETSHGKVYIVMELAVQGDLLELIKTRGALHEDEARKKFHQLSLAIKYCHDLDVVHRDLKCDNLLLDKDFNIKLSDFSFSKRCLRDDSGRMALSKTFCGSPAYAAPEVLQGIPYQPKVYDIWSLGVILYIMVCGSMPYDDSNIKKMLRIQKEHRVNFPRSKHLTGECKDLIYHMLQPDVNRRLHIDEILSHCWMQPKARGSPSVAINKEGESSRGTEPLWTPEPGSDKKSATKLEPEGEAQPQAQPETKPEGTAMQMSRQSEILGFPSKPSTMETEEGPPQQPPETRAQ
CLK1, sequence (P49759 whole entry): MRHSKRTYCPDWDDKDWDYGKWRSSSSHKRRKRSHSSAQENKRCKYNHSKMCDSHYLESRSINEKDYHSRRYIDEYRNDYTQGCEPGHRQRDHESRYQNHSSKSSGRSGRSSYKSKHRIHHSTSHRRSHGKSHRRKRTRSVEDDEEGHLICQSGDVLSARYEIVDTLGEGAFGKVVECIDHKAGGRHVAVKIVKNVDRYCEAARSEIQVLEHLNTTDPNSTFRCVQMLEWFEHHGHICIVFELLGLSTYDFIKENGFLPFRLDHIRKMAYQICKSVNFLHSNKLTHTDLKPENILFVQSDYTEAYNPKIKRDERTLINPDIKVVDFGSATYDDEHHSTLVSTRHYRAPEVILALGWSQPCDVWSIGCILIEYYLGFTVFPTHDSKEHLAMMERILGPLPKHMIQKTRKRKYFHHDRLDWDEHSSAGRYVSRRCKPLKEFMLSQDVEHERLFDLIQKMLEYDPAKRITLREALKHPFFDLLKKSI

Turning to `CN1CCN(c2ccc(OC(F)(F)F)c(Nc3ncc4c(n3)-c3c(c(C(N)=O)nn3CCO)CC4)c2)CC1` [NMS-P937], the concentration for half-maximal inhibition (IC50) was determined as 77.8 nM on TSSK1; 142 nM in the data set with PANC-1; 1150 nM against DYRK2; 114 nM at DYRK3; 59.3 nM at CK1δ; 235 nM on CLK1. The compound further had an IC50 against CLK2 of 37 nM. Besides, in the data set with PANC-1, the Bottom is listed as -2.5. The Top in the data set on PANC-1 worked out at 41.1. Besides, in data set [1], the “p-TCTP signal in tumors” value was “reduced p-TCTP signal”. Besides, the “Death / survival after 9-day dosing” value in the data set with Sprague-Dawley rats (15 mg/kg) is 1 out of 3 rats treated with NMS-P937 died and Death of 1/3 rat. For the same compound, in the data set on Sprague-Dawley rats (rat, in vivo, 15 mg/kg), the “Rats survived at day 14” value was 2/3. Moreover, the half-life in [2] is 2.4 h.
Consider `[2H]C1([2H])N(C)C([2H])([2H])C([2H])([2H])N(c2ccc(OC(F)(F)F)c(Nc3ncc4c(n3)-c3c(c(C(N)=O)nn3CCO)CC4)c2)C1([2H])[2H]` [PR00012], for which the IC50 against TSSK1 is 53.2 nM; with PANC-1, 237 nM; against DYRK2, 81.4 nM; at DYRK3, 112 nM; against CK1δ, 51.8 nM; on CLK1, 196 nM. On CLK2, 24.8 nM corresponded to half-maximal inhibition (IC50). Further, the Bottom with PANC-1 is reported as 9.8. Besides, the Top in the data set with PANC-1 was 53.1. The “p-TCTP signal in tumors” value in data set [1] is “reduced p-TCTP signal”. Further, the “Death / survival after 9-day dosing” value in the data set with Sprague-Dawley rats is listed as “all three rats treated with PR00012 survived”. In addition, in the data set with Sprague-Dawley rats (rat, in vivo, 15 mg/kg), the “Rats survived at day 14” value is given as 3/3. Also, the Tolerability result in the data set on Sprague-Dawley rats (rat, in vivo, 10 mg/kg) is “the rats were still tolerable”. Moreover, the half-life in data set [2] was 5.5 h.
